According to patent US12281080B2, “Quinoline-based compounds and methods of inhibiting CDK8/19” (University of South Carolina, priority 2018, dated 2025):

Assays:
ERN1 = ERN1 (Homo sapiens (Human), UniProt O75460); assay: KINOMEscan scanMAX; type: binding; settings: 2000 nM; read-out: Percent Control
CDK4-cyclinD1 = CDK4-cyclinD1 (Homo sapiens (Human), UniProt P11802); assay: KINOMEscan scanMAX; type: binding; settings: 2000 nM; read-out: Percent Control
SGK3 = SGK3 (Homo sapiens (Human), UniProt Q96BR1); assay: KINOMEscan scanMAX; type: binding; settings: 2000 nM; read-out: Percent Control
CDKL1 = CDKL1 (Homo sapiens (Human), UniProt Q00532); assay: KINOMEscan scanMAX; type: binding; settings: 2000 nM; read-out: Percent Control
DYRK1B = DYRK1B (Homo sapiens (Human), UniProt Q9Y463); assay: KINOMEscan scanMAX; type: binding; settings: 2000 nM; read-out: Percent Control
TXK = TXK (Homo sapiens (Human), UniProt P42681); assay: KINOMEscan scanMAX; type: binding; settings: 2000 nM; read-out: Percent Control
TAK1 (MAP3K7) = TAK1 (MAP3K7) (Homo sapiens (Human), UniProt O43318); assay: KINOMEscan scanMAX; type: binding; settings: 2000 nM; read-out: Percent Control
ERBB4 = ERBB4 (Homo sapiens (Human), UniProt Q15303); assay: KINOMEscan scanMAX; type: binding; settings: 2000 nM; read-out: Percent Control
BRSK2 = BRSK2 (Homo sapiens (Human), UniProt Q8IWQ3); assay: KINOMEscan scanMAX; type: binding; settings: 2000 nM; read-out: Percent Control
FLT3(K663Q) = FLT3(K663Q) (Homo sapiens (Human), UniProt P36888, K663Q); assay: KINOMEscan scanMAX; type: binding; settings: 2000 nM; read-out: Percent Control
BMX = BMX (Homo sapiens (Human), UniProt P51813); assay: KINOMEscan scanMAX; type: binding; settings: 2000 nM; read-out: Percent Control
TRKC (NTRK3) = TRKC (NTRK3) (Homo sapiens (Human), UniProt Q16288); assay: KINOMEscan scanMAX; type: binding; settings: 2000 nM; read-out: Percent Control
SYK = SYK (Homo sapiens (Human), UniProt P43405); assay: KINOMEscan scanMAX; type: binding; settings: 2000 nM; read-out: Percent Control
CDK5 = CDK5 (Homo sapiens (Human), UniProt Q00535); assay: KINOMEscan scanMAX; type: binding; settings: 2000 nM; read-out: Percent Control
LKB1 (STK11) = LKB1 (STK11) (Homo sapiens (Human), UniProt Q15831); assay: KINOMEscan scanMAX; type: binding; settings: 2000 nM; read-out: Percent Control
RIPK5 (DSTYK) = RIPK5 (DSTYK) (Homo sapiens (Human), UniProt Q6XUX3); assay: KINOMEscan scanMAX; type: binding; settings: 2000 nM; read-out: Percent Control
PIK3CA(I800L) = PIK3CA(I800L) (Homo sapiens (Human), UniProt P42336, I800L); assay: KINOMEscan scanMAX; type: binding; settings: 2000 nM; read-out: Percent Control
EPHB6 = EPHB6 (Homo sapiens (Human), UniProt O15197); assay: KINOMEscan scanMAX; type: binding; settings: 2000 nM; read-out: Percent Control
[1] = molecular target: ABL1(Q252H)-phosphorylated (Homo sapiens (Human), UniProt P00519, Q252H); assay: KINOMEscan scanMAX; type: binding; settings: 2000 nM; read-out: Percent Control
MST1 (STK4) = MST1 (STK4) (Homo sapiens (Human), UniProt Q13043); assay: KINOMEscan scanMAX; type: binding; settings: 2000 nM; read-out: Percent Control
TIE2 (TEK) = TIE2 (TEK) (Homo sapiens (Human), UniProt Q02763); assay: KINOMEscan scanMAX; type: binding; settings: 2000 nM; read-out: Percent Control
OSR1 (OXSR1) = OSR1 (OXSR1) (Homo sapiens (Human), UniProt O95747); assay: KINOMEscan scanMAX; type: binding; settings: 2000 nM; read-out: Percent Control
SGK (SGK1) = SGK (SGK1) (Homo sapiens (Human), UniProt O00141); assay: KINOMEscan scanMAX; type: binding; settings: 2000 nM; read-out: Percent Control
MRCKB (CDC42BPB) = MRCKB (CDC42BPB) (Homo sapiens (Human), UniProt Q9Y5S2); assay: KINOMEscan scanMAX; type: binding; settings: 2000 nM; read-out: Percent Control
[2] = molecular target: JAK1(JH1domain-catalytic) (Homo sapiens (Human), UniProt P23458); assay: KINOMEscan scanMAX; type: binding; settings: 2000 nM; read-out: Percent Control
SRMS = SRMS (Homo sapiens (Human), UniProt Q9H3Y6); assay: KINOMEscan scanMAX; type: binding; settings: 2000 nM; read-out: Percent Control
SRPK1 = SRPK1 (Homo sapiens (Human), UniProt Q96SB4); assay: KINOMEscan scanMAX; type: binding; settings: 2000 nM; read-out: Percent Control
HASPIN = HASPIN (Homo sapiens (Human), UniProt Q8TF76); assay: DiscoverX Kd assay
NEK9 = NEK9 (Homo sapiens (Human), UniProt Q8TD19); assay: KINOMEscan scanMAX; type: binding; settings: 2000 nM; read-out: Percent Control
CAMK2G = CAMK2G (Homo sapiens (Human), UniProt Q13555); assay: KINOMEscan scanMAX; type: binding; settings: 2000 nM; read-out: Percent Control
PIK3C2B = PIK3C2B (Homo sapiens (Human), UniProt O00750); assay: KINOMEscan scanMAX; type: binding; settings: 2000 nM; read-out: Percent Control
MRCKA (CDC42BPA) = MRCKA (CDC42BPA) (Homo sapiens (Human), UniProt Q5VT25); assay: KINOMEscan scanMAX; type: binding; settings: 2000 nM; read-out: Percent Control
EPHB4 = EPHB4 (Homo sapiens (Human), UniProt P54760); assay: KINOMEscan scanMAX; type: binding; settings: 2000 nM; read-out: Percent Control
PIK3CA(M1043I) = PIK3CA(M1043I) (Homo sapiens (Human), UniProt P42336, M1043I); assay: KINOMEscan scanMAX; type: binding; settings: 2000 nM; read-out: Percent Control
AKT2 = AKT2 (Homo sapiens (Human), UniProt P31751); assay: KINOMEscan scanMAX; type: binding; settings: 2000 nM; read-out: Percent Control
MAP4K5 = MAP4K5 (Homo sapiens (Human), UniProt Q9Y4K4); assay: KINOMEscan scanMAX; type: binding; settings: 2000 nM; read-out: Percent Control
CSF1R = CSF1R (Homo sapiens (Human), UniProt P07333); assay: KINOMEscan scanMAX; type: binding; settings: 2000 nM; read-out: Percent Control
IRAK3 = IRAK3 (Homo sapiens (Human), UniProt Q9Y616); assay: KINOMEscan scanMAX; type: binding; settings: 2000 nM; read-out: Percent Control

Sequence of DYRK1B (Q9Y463 whole entry): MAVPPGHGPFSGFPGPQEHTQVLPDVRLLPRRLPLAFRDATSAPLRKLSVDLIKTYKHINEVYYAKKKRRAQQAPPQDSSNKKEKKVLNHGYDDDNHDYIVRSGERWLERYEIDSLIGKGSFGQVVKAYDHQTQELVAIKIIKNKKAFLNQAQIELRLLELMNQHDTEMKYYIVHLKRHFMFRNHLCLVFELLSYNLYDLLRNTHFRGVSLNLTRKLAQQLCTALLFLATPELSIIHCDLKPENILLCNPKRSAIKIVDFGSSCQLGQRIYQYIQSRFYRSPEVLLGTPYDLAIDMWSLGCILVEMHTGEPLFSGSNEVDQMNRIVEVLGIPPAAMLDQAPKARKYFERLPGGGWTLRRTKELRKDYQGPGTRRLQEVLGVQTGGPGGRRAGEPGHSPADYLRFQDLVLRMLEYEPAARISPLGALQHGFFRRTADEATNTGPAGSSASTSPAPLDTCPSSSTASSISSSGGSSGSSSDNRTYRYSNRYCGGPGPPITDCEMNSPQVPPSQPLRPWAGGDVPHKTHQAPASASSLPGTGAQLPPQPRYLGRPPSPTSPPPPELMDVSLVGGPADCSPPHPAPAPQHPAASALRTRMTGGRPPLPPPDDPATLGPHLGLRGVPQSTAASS
Sequence of BRSK2 (Q8IWQ3 whole entry): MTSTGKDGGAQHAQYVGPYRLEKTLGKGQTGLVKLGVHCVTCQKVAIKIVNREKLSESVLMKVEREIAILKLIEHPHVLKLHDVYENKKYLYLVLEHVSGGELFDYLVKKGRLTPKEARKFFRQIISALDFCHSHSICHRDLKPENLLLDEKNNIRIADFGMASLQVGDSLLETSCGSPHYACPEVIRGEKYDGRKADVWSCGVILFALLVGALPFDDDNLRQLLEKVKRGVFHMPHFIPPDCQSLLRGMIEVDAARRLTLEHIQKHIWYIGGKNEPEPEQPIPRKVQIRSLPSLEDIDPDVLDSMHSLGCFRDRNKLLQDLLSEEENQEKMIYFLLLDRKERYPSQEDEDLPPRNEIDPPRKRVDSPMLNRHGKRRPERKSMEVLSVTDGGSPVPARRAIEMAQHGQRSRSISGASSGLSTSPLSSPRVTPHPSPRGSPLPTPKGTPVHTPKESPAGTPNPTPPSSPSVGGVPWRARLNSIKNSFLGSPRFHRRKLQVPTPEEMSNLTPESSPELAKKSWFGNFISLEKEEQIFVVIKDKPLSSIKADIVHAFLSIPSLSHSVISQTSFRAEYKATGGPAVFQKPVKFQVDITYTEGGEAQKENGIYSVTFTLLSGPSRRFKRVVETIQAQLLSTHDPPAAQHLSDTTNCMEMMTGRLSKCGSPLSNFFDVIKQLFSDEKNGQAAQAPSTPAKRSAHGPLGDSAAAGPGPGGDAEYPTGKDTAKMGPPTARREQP
Sequence of SRMS (Q9H3Y6 whole entry): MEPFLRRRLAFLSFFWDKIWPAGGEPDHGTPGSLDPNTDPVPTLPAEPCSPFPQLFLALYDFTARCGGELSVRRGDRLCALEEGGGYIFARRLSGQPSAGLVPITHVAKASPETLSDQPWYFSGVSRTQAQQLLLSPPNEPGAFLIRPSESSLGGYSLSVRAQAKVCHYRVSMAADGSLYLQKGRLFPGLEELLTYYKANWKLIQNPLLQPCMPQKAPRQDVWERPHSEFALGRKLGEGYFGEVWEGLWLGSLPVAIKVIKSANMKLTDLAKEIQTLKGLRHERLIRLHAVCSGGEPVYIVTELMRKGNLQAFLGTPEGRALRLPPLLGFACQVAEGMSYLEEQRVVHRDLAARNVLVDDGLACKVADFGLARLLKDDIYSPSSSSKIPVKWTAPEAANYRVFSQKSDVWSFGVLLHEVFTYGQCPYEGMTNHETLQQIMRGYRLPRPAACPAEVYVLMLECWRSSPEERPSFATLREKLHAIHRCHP
Sequence of MAP4K5 (Q9Y4K4 whole entry): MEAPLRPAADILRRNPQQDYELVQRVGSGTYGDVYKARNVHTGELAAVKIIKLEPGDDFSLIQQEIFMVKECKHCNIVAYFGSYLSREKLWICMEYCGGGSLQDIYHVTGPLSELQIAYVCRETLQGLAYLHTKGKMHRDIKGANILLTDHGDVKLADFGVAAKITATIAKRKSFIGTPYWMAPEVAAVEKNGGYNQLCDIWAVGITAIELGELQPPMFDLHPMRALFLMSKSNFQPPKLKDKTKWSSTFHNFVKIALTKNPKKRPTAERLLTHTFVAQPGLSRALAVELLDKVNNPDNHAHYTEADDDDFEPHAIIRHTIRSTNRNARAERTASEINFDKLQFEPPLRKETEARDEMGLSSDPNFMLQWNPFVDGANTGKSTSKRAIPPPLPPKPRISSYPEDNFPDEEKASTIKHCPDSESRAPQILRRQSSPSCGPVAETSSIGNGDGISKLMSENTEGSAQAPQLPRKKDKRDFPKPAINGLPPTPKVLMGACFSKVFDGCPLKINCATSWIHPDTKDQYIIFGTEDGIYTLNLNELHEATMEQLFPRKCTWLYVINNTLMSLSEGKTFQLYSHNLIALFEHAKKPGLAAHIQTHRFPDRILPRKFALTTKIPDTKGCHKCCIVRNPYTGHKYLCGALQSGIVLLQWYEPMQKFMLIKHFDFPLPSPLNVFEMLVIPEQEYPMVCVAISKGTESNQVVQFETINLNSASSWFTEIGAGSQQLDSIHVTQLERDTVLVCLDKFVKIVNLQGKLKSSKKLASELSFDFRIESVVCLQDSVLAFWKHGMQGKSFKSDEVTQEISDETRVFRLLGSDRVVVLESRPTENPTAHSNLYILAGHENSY
Sequence of TIE2 (TEK) (Q02763 23-1124): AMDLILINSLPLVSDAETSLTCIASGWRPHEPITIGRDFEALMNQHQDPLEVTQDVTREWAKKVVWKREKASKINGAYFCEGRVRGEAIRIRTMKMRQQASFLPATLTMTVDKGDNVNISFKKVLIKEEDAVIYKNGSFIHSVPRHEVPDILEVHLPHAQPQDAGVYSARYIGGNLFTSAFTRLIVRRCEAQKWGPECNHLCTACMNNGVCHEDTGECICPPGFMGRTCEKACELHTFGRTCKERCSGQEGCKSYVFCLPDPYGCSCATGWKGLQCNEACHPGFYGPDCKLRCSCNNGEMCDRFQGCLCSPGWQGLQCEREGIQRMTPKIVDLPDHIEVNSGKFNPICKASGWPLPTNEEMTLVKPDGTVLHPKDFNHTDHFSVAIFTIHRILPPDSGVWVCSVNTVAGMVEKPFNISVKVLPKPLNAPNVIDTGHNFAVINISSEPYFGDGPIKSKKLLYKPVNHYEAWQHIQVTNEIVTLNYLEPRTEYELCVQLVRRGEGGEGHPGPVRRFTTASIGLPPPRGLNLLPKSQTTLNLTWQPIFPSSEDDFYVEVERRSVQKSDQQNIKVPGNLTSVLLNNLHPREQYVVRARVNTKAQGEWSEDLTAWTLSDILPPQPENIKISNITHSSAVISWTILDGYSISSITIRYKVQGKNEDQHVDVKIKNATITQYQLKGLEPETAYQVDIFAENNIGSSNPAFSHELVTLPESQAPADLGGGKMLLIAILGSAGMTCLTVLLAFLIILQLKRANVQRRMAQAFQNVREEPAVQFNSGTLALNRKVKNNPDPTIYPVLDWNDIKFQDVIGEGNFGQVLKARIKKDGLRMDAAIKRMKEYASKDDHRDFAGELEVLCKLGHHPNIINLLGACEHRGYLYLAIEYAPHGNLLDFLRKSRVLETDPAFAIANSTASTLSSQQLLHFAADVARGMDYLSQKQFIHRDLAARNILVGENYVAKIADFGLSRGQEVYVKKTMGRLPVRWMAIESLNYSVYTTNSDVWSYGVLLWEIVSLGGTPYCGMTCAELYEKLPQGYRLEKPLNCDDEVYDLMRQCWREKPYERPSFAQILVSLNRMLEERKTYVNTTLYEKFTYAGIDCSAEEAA
Sequence of EPHB4 (P54760 16-987): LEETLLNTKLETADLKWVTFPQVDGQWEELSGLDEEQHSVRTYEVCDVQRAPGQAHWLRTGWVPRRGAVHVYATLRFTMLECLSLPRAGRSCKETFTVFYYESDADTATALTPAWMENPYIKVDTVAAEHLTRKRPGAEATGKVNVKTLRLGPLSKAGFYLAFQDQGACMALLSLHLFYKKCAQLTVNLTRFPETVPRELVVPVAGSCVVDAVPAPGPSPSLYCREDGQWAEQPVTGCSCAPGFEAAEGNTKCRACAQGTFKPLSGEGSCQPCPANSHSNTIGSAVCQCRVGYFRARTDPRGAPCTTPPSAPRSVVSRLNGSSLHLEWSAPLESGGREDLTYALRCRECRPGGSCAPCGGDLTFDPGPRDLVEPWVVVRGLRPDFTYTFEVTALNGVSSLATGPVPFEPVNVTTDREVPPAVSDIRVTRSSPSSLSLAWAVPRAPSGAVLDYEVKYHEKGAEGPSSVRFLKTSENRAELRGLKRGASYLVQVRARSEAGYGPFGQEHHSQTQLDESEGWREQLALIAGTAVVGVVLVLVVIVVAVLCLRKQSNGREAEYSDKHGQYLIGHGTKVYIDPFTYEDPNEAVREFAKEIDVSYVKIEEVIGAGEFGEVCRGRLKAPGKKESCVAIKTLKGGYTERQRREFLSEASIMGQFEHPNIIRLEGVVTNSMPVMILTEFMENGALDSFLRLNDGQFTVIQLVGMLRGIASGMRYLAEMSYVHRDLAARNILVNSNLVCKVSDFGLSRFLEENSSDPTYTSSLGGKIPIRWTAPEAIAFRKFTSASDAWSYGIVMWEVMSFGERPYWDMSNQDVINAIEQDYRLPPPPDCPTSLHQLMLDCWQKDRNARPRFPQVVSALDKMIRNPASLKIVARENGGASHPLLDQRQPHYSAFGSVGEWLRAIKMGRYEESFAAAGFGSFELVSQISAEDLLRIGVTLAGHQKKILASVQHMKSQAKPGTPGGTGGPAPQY
Sequence of JAK1(JH1domain-catalytic) (P23458 875-1153): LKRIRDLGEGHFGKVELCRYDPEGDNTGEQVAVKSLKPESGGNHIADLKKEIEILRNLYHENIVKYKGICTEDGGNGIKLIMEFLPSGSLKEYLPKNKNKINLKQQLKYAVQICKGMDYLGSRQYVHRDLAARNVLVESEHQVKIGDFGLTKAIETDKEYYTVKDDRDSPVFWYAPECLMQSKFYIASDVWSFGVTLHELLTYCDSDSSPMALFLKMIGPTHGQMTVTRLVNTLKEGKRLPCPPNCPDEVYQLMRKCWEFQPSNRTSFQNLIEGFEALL

SMILES: CN1CCN(C(=O)c2ccc3cc(CCNc4ccnc5ccc(C#N)cc45)ccc3c2)CC1 [compound 6148, 4-((2-(6-(4-methylpiperazine-1-carbonyl)naphthalen-2-yl)ethyl)amino)quinoline-6-carbonitrile]
- remaining binding at 2 µM (ERN1): 58%
- remaining binding at 2 µM (CDK4-cyclinD1): 83%
- remaining binding at 2 µM (SGK3): 75%
- remaining binding at 2 µM (CDKL1): 94%
- remaining binding at 2 µM (DYRK1B): 83%
- remaining binding at 2 µM (TXK): 94%
- remaining binding at 2 µM (TAK1 (MAP3K7)): 63%
- remaining binding at 2 µM (ERBB4): 95%
- remaining binding at 2 µM (BRSK2): 96%
- remaining binding at 2 µM (FLT3(K663Q)): 87%
- remaining binding at 2 µM (BMX): 100%
- remaining binding at 2 µM (TRKC (NTRK3)): 69%
- remaining binding at 2 µM (SYK): 97%
- remaining binding at 2 µM (CDK5): 100%
- remaining binding at 2 µM (LKB1 (STK11)): 87%
- remaining binding at 2 µM (RIPK5 (DSTYK)): 69%
- remaining binding at 2 µM (PIK3CA(I800L)): 72%
- remaining binding at 2 µM (EPHB6): 86%
- remaining binding at 2 µM [1]: 89%
- remaining binding at 2 µM (MST1 (STK4)): 95%
- remaining binding at 2 µM (TIE2 (TEK)): 89%
- remaining binding at 2 µM (OSR1 (OXSR1)): 51%
- remaining binding at 2 µM (SGK (SGK1)): 50%
- remaining binding at 2 µM (MRCKB (CDC42BPB)): 100%
- remaining binding at 2 µM [2]: 94%
- remaining binding at 2 µM (SRMS): 75%
- remaining binding at 2 µM (SRPK1): 91%
- Kd (HASPIN): 1000 nM
- remaining binding at 2 µM (NEK9): 97%
- remaining binding at 2 µM (CAMK2G): 100%
- remaining binding at 2 µM (PIK3C2B): 80%
- remaining binding at 2 µM (MRCKA (CDC42BPA)): 98%
- remaining binding at 2 µM (EPHB4): 89%
- remaining binding at 2 µM (PIK3CA(M1043I)): 80%
- remaining binding at 2 µM (AKT2): 100%
- remaining binding at 2 µM (MAP4K5): 95%
- remaining binding at 2 µM (CSF1R): 85%
- remaining binding at 2 µM (IRAK3): 94%
